{"source": "patent US8496928B2", "about": "“Method for preventing and treating cardiovascular diseases with BRCA1” (priority 2008, dated 2013)", "tested_on": "HUVECs", "experiment": "HUVEC apoptosis assays (Annexin V-FITC/PI flow cytometry, cleaved caspase-3, DNA fragmentation)", "type": "cell-based, human", "details": "ad-null infected HUVECs, TNFα 20 ng/ml 24 hours", "method": "In FIG. 23A ad-null or ad-BRCA1 infected HUVECs were treated with TNFα (20 ng/ml) for 24 hours. Cells were harvested for Annexin V-FITC and Propidium Iodide staining followed by flow cytometry. Total apoptotic cells are shown as mean±SD (n=3 in triplicate, **p<0.01). In FIG. 23B, HUVECs were treated with either siBRCA1 (10 nM) or scrambled siRNA (10 nM) for 24 hours. BRCA1-silenced and control HUVECs were treated with TNFα (20 ng/ml), stained with Annexin V-FITC and Propidium Iodide, and analyzed by flow cytometry. The percentage of total apoptotic cells are presented as mean±SD (n=3 in triplicate, **p<0.01). […] Data was calculated as the percentage of total apoptotic cells and presented as mean±SD (n=3 in triplicate, **p<0.01).\nFIG. 31 is a bar graph showing protection of HUVECs against doxorubicin-induced apoptosis by BRCA1 overexpression. […] Data was calculated as the percentage of total apoptotic cells and presented as mean±SD (n=3 in triplicate, *p<0.01 vs. Ad-null group, †p<0.01 vs. Ad-null+2 μM Dox group). […]\nHuman umbilical vein endothelial cells (HUVECs) were purchased from Cambrex and cultured in MCDB-131 complete medium (Cambrex Corporation). […] These concentrations were determined from pilot optimization studies. […]\nApoptotic and necrotic cell death were assessed in ad-BRCA1 and ad-null infected HUVECs by flow cytometry coupled with the BD Annexin V-FITC Apoptosis Detection Kit. […]", "data": [{"substance": "TNFα", "values": [{"measurement": "apoptosis", "result": "significant apoptosis"}]}]}
